# Reference: US8853271B2, “Method for inhibiting activity and/or expression of matrix metalloproteinase, inhibiting phosphorylation of mitogen-activated protein kinase, and/or promoting expression of collagen using tormentic acid” (China Medical University, priority 2010, dated 2014)
# Tests used:
# [1] = tested on: bacterial matrix metalloproteinase; assay: Decomposition test of gelatin (inhibition of matrix metalloproteinase activity); type: biochemical
# Description: (§1) In addition to collagen decomposing, matrix metalloproteinase (collagenase) has the effect of gelatin decomposing. The property of the fluorescence generation of decomposed gelatin and decomposed commercial substrates of collagenase (purchased from Calbiochem, la Jolla, […]) was used in this example to evaluate the inhibitory effect of tormentic acid on the matrix metalloproteinase.
# A 50 μl buffer solution (pH 7.8, contained 50 mM Tris-HCl, 10 mM calcium chloride, and 0.15 M sodium chloride), 30 μl sterile water, and 10 μl bacterial matrix metalloproteinase (0.1 mg/ml, Sigma) were added into an eppendorf tube, and then a 10 μl solution of tormentic acid ([…]) or doxycycline as the positive control was added into the eppendorf tube. The mixture was well mixed, and incubated at room temperature for 60 minutes.
# The mixture (30 μl) was drawn and dropped on a circular filter paper covering a gelatin culture medium, and then the filter paper along with the medium was placed into an incubator under 37° C. After incubating for 18 hours, the filter paper was removed. The culture medium was stained with a Coomassie Blue R-250 staining solution (purchased from Amresco company, America), and then was destained with a destaining solution. Because gelatin decomposed by matrix metalloproteinase will not be stained by the Coomassie Blue staining solution, the transparency of the culture medium may reveal the activity of the matrix metalloproteinase. After the culture medium was photographed, the picture was analyzed by an image analysis software (AlphaDigiDoc 1201, purchased from Alpha Innotech Co., America) to calculate the inhibition rate of tormentic acid on the activity of gelatin decomposition of the matrix metalloproteinase.
# [2] = tested on: matrix metalloproteinase (collagenase, Sigma); assay: Fluorogenic substrate test (collagenase substrate III); type: biochemical
# Description: as §1
# A specific amount of a solution of the collagenase substrate III (Mcc-Pro-Leu-Gly-Pro-D-Lys (DNP)—OH, purchased from Calbiochem, la Jolla, […]), a matrix metalloproteinase (collagenase, Sigma) solution, tormentic acid or doxycycline as the positive control were mixed and added to a 96 well plate. Then, an ELISA reader was used to determine the […] (405 nm), respectively. The results are shown in Table 2 and FIG. 3, wherein ΔF is the fluorescence value that the basic fluorescence value at time zero has been deducted.
# [3] = tested on: WS1 human skin dermal fibroblasts; assay: Test of cell survival rate (MTS assay) under UV exposure; type: cell-based; conditions: for absorption value (MTS, 490 nm) / survival rate (%): UV 90 mJ/cm^2, 24 hours; for death of the cells (in words): 90 mJ/cm^2 UV
# Description: The following experiment was carried out by using WS1 human skin dermal fibroblasts (purchased from Food Industry Research and Development Institute, Taiwan). Under exposure to the ultraviolet ray (UV) with the intensity range from 0 mJ/cm^2 to 120 mJ/cm^2, it will not cause death to WS1 human skin dermal fibroblasts. Thus, this experiment was carried out at the UV intensity of 90 mJ/cm^2. First, tormentic acid of various concentrations (0, 0.1, 1.0, 2.0, or 10 μg/ml) was added to a culture medium (comprising α-minimum essential medium, 10% heat-inactivated Fetal Bovine Serum, 100 U/ml penicillin, and 100 μg/ml Streptomycin) containing the WS1 human skin dermal fibroblasts. After the cells were cultured for 24 hours, an MTS (3-(4,5-di-methylthiazol-2-yl)-5-(3-carboxymethoxy phenyl)-2-(4-sulfophenyl)-2H-tetrazolium, commercially available from Promega, Madison, Wis., America) assay was carried out to observe the cell survival rate, and the results are shown in Table 3. The mechanism of the MTS assay is as follows: the dehydrogenase activity of living cells can reduce MTS to a water soluble product that is red purple in color, which has a maximum absorption at a wavelength of 490 nm, and thus, the cell survival rate can be evaluated by absorption values.
# procollagen-1 = assay: Western blotting of procollagen-1 in UV-exposed fibroblasts; type: cell-based, human; conditions: WS1 fibroblasts exposed to UV for 24 hours, treated for 1 hour before collection
# [4] = tested on: matrix metalloproteinase-1; assay: Western blotting of matrix metalloproteinase-1 in UV-exposed fibroblasts; type: cell-based, human; conditions: WS1 fibroblasts exposed to UV for 24 hours, treated for 1 hour before collection
# [5] = tested on: c-Jun N-terminal Kinase (JNK); assay: Western blotting of phosphorylated JNK in UV-exposed fibroblasts; type: cell-based, human; conditions: WS1 fibroblasts exposed to UV for 24 hours, treated for 1 hour before collection
# Description: (§2) The skin “photo-aging” caused by ultraviolet rays may lead to an increase of matrix metalloproteinase in the dermis via the phosphorylation of the mitogen-activated protein kinase (MAPK), and thus a western blotting assay was also carried out in this experiment to observe the effect of tormentic acid on the phosphorylation of mitogen-activated protein kinase in cells; the result is shown in FIG. 5.
# (§3) However, when the cells were treated with tormentic acid for 1 hour before collection, the phosphorylation of JNK, ERK, and p38 can be inhibited.
# [6] = tested on: extracellular signal-regulated protein kinase (ERK); assay: Western blotting of phosphorylated ERK in UV-exposed fibroblasts; type: cell-based, human; conditions: WS1 fibroblasts exposed to UV for 24 hours, treated for 1 hour before collection
# Description: as §2, §3
# p38 protein = assay: Western blotting of phosphorylated p38 in UV-exposed fibroblasts; type: cell-based, human; conditions: WS1 fibroblasts exposed to UV for 24 hours, treated for 1 hour before collection
# Description: as §2, §3
# c-Jun = assay: Western blotting of AP-1 subunit c-Jun in the nucleus; type: cell-based, human; conditions: WS1 fibroblasts exposed to UV for 24 hours, treated for 1 hour before collection
# Description: (§4) The UV exposure of cells induces JNK and p38 to activate c-Jun, which then enters into the nucleus. Then, c-Fos translocates into the nucleus under the regulation of ERK and p38. A c-Jun subunit combines with a c-Fos subunit to form an activator protein 1 (AP-1) gene transcription factor, which then participates in gene expression to promote the transcription of message RNA (mRNA) of matrix metalloproteinase-1 (MMP-1) and reduces the gene expression of procollagen-Iα1 (procollagen α1 of Type I collagen). Thus, a western blotting assay was carried out in this experiment to further observe the protein expression of AP-1 in the nucleus, and the result is shown in FIG. 6. After the WS1 human skin dermal fibroblasts were exposed to UV rays for 24 hours, the expression level of c-Jun and c-Fos in the nucleus were increased. However, when the cells were treated with tormentic acid for 1 hour before collection, the expression of c-Jun and c-Fos were inhibited.
# c-Fos = assay: Western blotting of AP-1 subunit c-Fos in the nucleus; type: cell-based, human; conditions: WS1 fibroblasts exposed to UV for 24 hours, treated for 1 hour before collection
# Description: as §4
structure (smiles),measurement,setting,value
C[C@@H]1CC[C@]2(C(=O)O)CC[C@]3(C)C(=CC[C@@H]4[C@@]5(C)C[C@@H](O)[C@H](O)C(C)(C)[C@@H]5CC[C@]43C)[C@@H]2[C@]1(C)O [tormentic acid],Inhibition rate (%) of gelatin decomposing activity,[1]; 25 μg/ml,3.7%
same,Inhibition rate (%) of gelatin decomposing activity,[1]; 50 μg/ml,24.0%
same,Inhibition rate (%) of gelatin decomposing activity,[1]; 100 μg/ml,62.7%
same,Inhibition rate (%) of gelatin decomposing activity,[1]; 200 μg/ml,75.3%
same,activity of gelatin decomposition of the matrix metalloproteinase (in words),[1]; 25-200 μg/ml,significantly inhibited
same,generation of fluorescence from collagenase substrate III (in words),[2],can reduce the generation of fluorescence
same,Inhibition rate (collagenase substrate III decomposition),[2]; 50 μg/ml,(39%)
same,"ΔF (fluorescence value, time-zero value deducted)",[2]; 50 μg/ml,54.8 ± 8.4
same,Inhibition rate (collagenase substrate III decomposition),[2]; 100 μg/ml,(44.7%)
same,"ΔF (fluorescence value, time-zero value deducted)",[2]; 100 μg/ml,49.8 ± 7.2
same,Inhibition rate (collagenase substrate III decomposition),[2]; 250 μg/ml,(79.1%)
same,"ΔF (fluorescence value, time-zero value deducted)",[2]; 250 μg/ml,18.8 ± 10.8
same,"absorption value (MTS, 490 nm)",[3]; 0.1 μg/ml,1.08 ± 0.95
same,survival rate (%),[3]; 0.1 μg/ml,103.8%
same,"absorption value (MTS, 490 nm)",[3]; 1.0 μg/ml,1.10 ± 0.97
same,survival rate (%),[3]; 1.0 μg/ml,105.8%
same,"absorption value (MTS, 490 nm)",[3]; 2.0 μg/ml,1.10 ± 0.98
same,survival rate (%),[3]; 2.0 μg/ml,105.8%
same,"absorption value (MTS, 490 nm)",[3]; 10.0 μg/ml,0.83 ± 0.70
same,survival rate (%),[3]; 10.0 μg/ml,79.8%
same,death of the cells (in words),[3]; concentration of 10 μg/ml,caused the death of the cells
same,death of the cells (in words),[3]; concentration of lower than 2 μg/ml,did not cause the death of the cells
same,cytotoxicity (in words),[3]; low concentration,no cytotoxicity
same,expression of procollagen-1,procollagen-1,increased
same,expression of matrix metalloproteinase-1,[4],inhibited
same,phosphorylation of JNK,[5],inhibited
same,phosphorylation of ERK,[6],inhibited
same,phosphorylation of p38,p38 protein,inhibited
same,expression of c-Jun in the nucleus,c-Jun,inhibited
same,expression of c-Fos in the nucleus,c-Fos,inhibited
